US8513232B2, “Substituted spirocyclic piperidine derivatives as histamine-3 (H3) receptor ligands” (Cephalon, Inc., priority 2008, dated 2013)
Like-named read-outs stand apart in the source and are kept apart here.

Tests used:
human H3 receptor = target: T1, human H3 receptor (Homo sapiens, UniProt Q9Y5N1); assay: Human H3 radioligand binding ([3H]-N-alpha-methylhistamine, SPA)
T1 construct: expressed in transfected cells
Procedure, shortened: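 SPA competition binding on membranes from CHO cells stably expressing human H3 receptor (10 μg protein/well) with ~1 nM [3H]-N-alpha-methylhistamine and compound at 0.01 nM-30 μM. Incubation 4 h at room temperature in 50 mM Tris-HCl pH 7.4, 5 mM MgCl2, 0.1% BSA; non-specific binding defined with 10 μM clobenpropit.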

[1] = target: T2, rat histamine H3 receptor (Rattus norvegicus, UniProt Q9QYN8); assay: Rat H3 radioligand binding ([3H]-N-alpha-methylhistamine, SPA)
T2 construct: encoding the entire 445-amino-acid rat histamine H3 receptor; expressed in transfected cells; membrane preparation
T2 sequence (Q9QYN8 whole entry): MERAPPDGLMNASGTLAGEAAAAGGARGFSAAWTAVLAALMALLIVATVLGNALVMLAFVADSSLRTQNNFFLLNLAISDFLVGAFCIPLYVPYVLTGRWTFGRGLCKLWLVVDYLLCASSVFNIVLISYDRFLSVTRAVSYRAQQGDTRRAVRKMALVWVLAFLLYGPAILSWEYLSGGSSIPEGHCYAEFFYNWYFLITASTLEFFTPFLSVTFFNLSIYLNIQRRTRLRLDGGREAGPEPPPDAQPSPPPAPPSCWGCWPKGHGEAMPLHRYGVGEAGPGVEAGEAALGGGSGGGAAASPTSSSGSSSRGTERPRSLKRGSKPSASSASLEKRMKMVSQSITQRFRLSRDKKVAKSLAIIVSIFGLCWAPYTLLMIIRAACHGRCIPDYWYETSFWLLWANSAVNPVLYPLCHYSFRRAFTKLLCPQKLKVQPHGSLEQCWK
Procedure, shortened: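 Membranes from CHO-A3 cells stably expressing full-length rat H3 receptor (10 μg protein/well) incubated 4 h at room temperature, protected from light, with ~1 nM [3H]-N-alpha-methylhistamine and compound (0.01 nM-30 μM) in 50 mM Tris HCl pH 7.4, 5 mM MgCl2, 0.1% BSA. Binding read by SPA; 10 μM clobenpropit defined non-specific binding.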

[2] = Human H3 binding, Table B, Examples 136-362, read-out: hum H3 binding Ki
[3] = Rat H3 binding, Table B, Examples 136-362, read-out: rat H3 binding Ki
[4] = human H3 binding, Table D, read-out: Human H3 Ki
[5] = rat H3 binding, Table D, read-out: Rat H3 Ki
[6] = Table C, human H3 binding, read-out: Human H3 Ki
[7] = Table C, rat H3 binding, read-out: Rat H3 Ki
[8] = Table A, human H3 binding, read-out: Human Ki
[9] = Table A, rat H3 binding, read-out: Rat Ki

T1 sequence (Q9Y5N1 whole entry): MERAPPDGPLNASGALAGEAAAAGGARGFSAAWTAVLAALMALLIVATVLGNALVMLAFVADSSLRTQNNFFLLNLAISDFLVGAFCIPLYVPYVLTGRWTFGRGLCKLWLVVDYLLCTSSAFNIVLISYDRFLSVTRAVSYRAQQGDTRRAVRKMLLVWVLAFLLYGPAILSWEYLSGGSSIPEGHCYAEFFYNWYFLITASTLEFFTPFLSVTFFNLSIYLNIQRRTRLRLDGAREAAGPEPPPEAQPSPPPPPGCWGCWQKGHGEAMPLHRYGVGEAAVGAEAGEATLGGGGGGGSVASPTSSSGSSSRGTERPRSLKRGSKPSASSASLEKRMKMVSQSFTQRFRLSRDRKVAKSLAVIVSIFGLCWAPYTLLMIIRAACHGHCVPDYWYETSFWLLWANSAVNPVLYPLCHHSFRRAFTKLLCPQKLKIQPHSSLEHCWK

SMILES | melting point | Ki (human H3 receptor; [2]) [nM] | Ki [1, 3] [nM] | Ki (human H3 receptor; [4]) [nM] | Ki [1, 5] [nM] | also measured
CNC(=O)C1CCN(c2ccc3c(c2)CCC2(CCN(C4CCC4)CC2)O3)CC1 [Example 396] | 264 to 267 °C |  |  |  |  | Ki (human H3 receptor; [6]): < 200 nM; Ki [1, 7]: < 200 nM
Cc1cc(C(=O)NC2CCOCC2)ccc1-c1ccc2c(c1)COC1(CCN(C3CCC3)CC1)O2 [Example 687] | 184 to 185 °C |  |  | < 200 | < 200 | 
CC(C)c1nnc(CCc2ccc3c(c2)COC2(CCN(C4CCC4)CC2)O3)o1 [Example 695] | 101 to 103 °C |  |  | < 200 | < 200 | 
c1ccc(OC2CCN(c3ccc4c(c3)CCC3(CCN(C5CCC5)CC3)O4)CC2)cc1 [Example 432] | > 265 °C (dec.) |  |  |  |  | Ki (human H3 receptor; [6]): < 200 nM; Ki [1, 7]: < 200 nM
CC(=O)N1CCC(Oc2ccc3c(c2)CCC2(CCN(C4CCC4)CC2)O3)CC1 [Example 426] | 227 to 229 °C |  |  |  |  | Ki (human H3 receptor; [6]): < 200 nM; Ki [1, 7]: < 200 nM
O=C(Nc1ccc2c(c1)CCC1(CCN(C3CCC3)CC1)O2)c1ccns1 [Example 270] | 109 to 111 °C | < 200 | < 200 |  |  | 
N#Cc1ccc(Oc2ccc3c(c2)CCC2(CCN(C4CCC4)CC2)O3)cc1 [Example 223] | 237 to 239 °C | < 200 | < 200 |  |  | 
O=c1cc(COc2ccc3c(c2)CCC2(CCN(C4CCC4)CC2)O3)cc[nH]1 [Example 663] | 205 to 206 °C |  |  | < 200 | < 200 | 
O=S1(=O)CCC(O)(c2ccc3c(c2)COC2(CCN(C4CCC4)CC2)O3)CC1 [Example 517] | 240 to 241 °C |  |  |  |  | Ki (human H3 receptor; read-out: Human H3 Ki): < 200 nM; Ki ([1]; read-out: Rat H3 kI): < 200 nM
FC(F)(F)c1ccc(N2CCN(c3ccc4c(c3)CCC3(CCN(C5CCC5)CC3)O4)CC2)nc1 [Example 372] | 212 to 213 °C |  |  |  |  | Ki (human H3 receptor; [6]): < 200 nM; Ki [1, 7]: < 200 nM
COCCNC(=O)c1ccc(-c2ccc3c(c2)CCC2(CCN(C4CCC4)C2)O3)cc1F (stereo not drawn) [Example 337] | 58 to 60 °C | < 200 | < 200 |  |  | 
O[C@H]1CCN(c2ccc3c(c2)COC2(CCN(C4CCC4)CC2)O3)C1 [Example 354] | 72.6 to 74.9 °C | < 200 | < 200 |  |  | 
CNC(=O)c1ccc(-c2ccc3c(c2)CC2(CCN(C4CCC4)CC2)O3)cc1 [Example 134, 1′-Cyclobutyl-spirobenzofuran-2(3H)-4′-piperidine-(5-(4-methylaminocarbamoylphenyl))] | 197 to 198 °C |  |  |  |  | Ki (human H3 receptor; [8]): < 200 nM; Ki [1, 9]: < 200 nM
CC(C)C(=O)NC1CCN(c2ccc3c(c2)COC2(CCN(C4CCC4)CC2)O3)CC1 [Example 324] | 208.4 to 210.6 °C | < 200 | < 200 |  |  | 
CO[C@H]1CCN(C(=O)c2ccc(-c3ccc4c(c3)CCC3(CCN(C5CCC5)CC3)O4)cn2)C1 [Example 252] | 249 to 251 °C | < 200 | < 200 |  |  | 
Cc1cc(C(=O)Nc2ccc3c(c2)COC2(CCN(C4CCC4)CC2)O3)cc(C)n1 [Example 296] | 191 to 193 °C | < 200 | < 200 |  |  | 
CC(=O)N1CCN(c2ccc3c(c2)COC2(CCN(C4CCC4)CC2)O3)CC1 [Example 283] | 60.8 to 62.3 °C | < 200 | < 200 |  |  | 
O=C1CCCN1CCOc1ccc2c(c1)CCC1(CCN(C3CCC3)CC1)O2 [Example 458] | 170 to 172 °C |  |  |  |  | Ki (human H3 receptor; read-out: Human H3 Ki): < 200 nM; Ki ([1]; read-out: Rat H3 kI): < 200 nM
CNC(=O)c1ccc(-c2ccc3c(c2)CCC2(CCN(C4CCC4)CC2)O3)cn1 [Example 156] | 67 to 69 °C | < 200 | < 200 |  |  | 
CCS(=O)(=O)C1CCN(c2ccc3c(c2)COC2(CCN(C4CCC4)CC2)O3)CC1 [Example 648] | 147.7 to 149.8 °C |  |  | < 200 | < 200 | 
O=C(NC1CCOCC1)c1ccc(-c2ccc3c(c2)COC2(CCN(C4CCC4)CC2)O3)s1 [Example 631] | 209 to 211 °C |  |  | < 200 | < 200 | 
O=C(c1ccc(-c2ccc3c(c2)CCC2(CCN(C4CCC4)CC2)O3)cc1F)N1CCC(O)CC1 [Example 240] | 102.8 to 104.6 °C | < 200 | < 200 |  |  | 
[O-][S+]1CC=C(c2ccc3c(c2)COC2(CC[N+]([O-])(C4CCC4)CC2)O3)CC1 (stereo not drawn) [Example 472] | 130 to 133 °C |  |  |  |  | Ki (human H3 receptor; read-out: Human H3 Ki): < 200 nM; Ki ([1]; read-out: Rat H3 kI): < 200 nM
O=C1CCC(c2ccc3c(c2)COC2(CCN(C4CCC4)CC2)O3)CN1 (stereo not drawn) [Example 530] | 233 to 235 °C |  |  |  |  | Ki (human H3 receptor; read-out: Human H3 Ki): < 200 nM; Ki ([1]; read-out: Rat H3 kI): < 200 nM
CC(C)C(=O)N1CCC(Oc2ccc3c(c2)CCC2(CCN(C4CCC4)CC2)O3)CC1 [Example 427] | 239 to 241 °C |  |  |  |  | Ki (human H3 receptor; [6]): < 200 nM; Ki [1, 7]: < 200 nM

Second part, led by results:

melting point | Ki (human H3 receptor; [2]) [nM] | Ki [1, 3] [nM] | Ki (human H3 receptor; [4]) [nM] | Ki [1, 5] [nM] | SMILES | also measured
113 to 115 °C |  |  |  |  | COc1cnc(-c2ccc3c(c2)COC2(CCN(C4CCC4)CC2)O3)nc1 [Example 470] | Ki (human H3 receptor; read-out: Human H3 Ki): < 200 nM; Ki ([1]; read-out: Rat H3 kI): < 200 nM
185 to 189 °C | < 200 | < 200 |  |  | O=C1N(c2ccncc2)CCN1c1ccc2c(c1)COC1(CCN(C3CCC3)CC1)O2 [Example 178] | 
190 to 193 °C |  |  | < 200 | < 200 | CN(C)C(=O)c1ccc(-c2ccc3c(c2)COC2(CCN(C4CCC4)CC2)O3)nc1 [Example 638] | 
176 to 177 °C |  |  | < 200 | < 200 | CC(C)n1cc(-c2ccc3c(c2)COC2(CCN(C4CCC4)CC2)O3)ccc1=O [Example 719] | 
205 to 207 °C |  |  | < 200 | < 200 | CCSCc1cc(-c2ccc3c(c2)COC2(CCN(C4CCC4)CC2)O3)c[nH]c1=O [Example 774] | 
209 to 211 °C |  |  | < 200 | < 200 | O=C(NC1CCOCC1)c1ccc(-c2ccc3c(c2)COC2(CCN(C4CCC4)CC2)O3)cc1Cl [Example 606] | 
195 to 197 °C | < 200 | < 200 |  |  | O=C1N(c2ccccc2)CCN1c1ccc2c(c1)COC1(CCN(C3CCC3)CC1)O2 [Example 207] | 
59 to 61 °C |  |  | < 200 | < 200 | CCc1nc(OC)ccc1-c1ccc2c(c1)COC1(CCN(C3CCC3)CC1)O2 [Example 789] | 
131 to 133 °C |  |  | < 200 | < 200 | COc1ccc(-c2ccc3c(c2)COC2(CCN(C4CCC4)CC2)O3)c(C)n1 [Example 726] | 
192 to 193 °C | < 200 | < 200 |  |  | O=C(Nc1ccc2c(c1)COC1(CCN(C3CCC3)CC1)O2)c1ccncc1Cl [Example 221] | 
63 to 65 °C | < 200 | < 200 |  |  | CC(=O)N(Cc1ccncc1)c1ccc2c(c1)COC1(CCN(C3CCC3)CC1)O2 [Example 250] | 
141 to 142 °C |  |  | < 200 | < 200 | COCCn1cc(-c2ccc3c(c2)COC2(CCN(C4CCC4)CC2)O3)ccc1=O [Example 708] | 
138 to 140 °C | < 200 | < 200 |  |  | COCC(C)(C)NC(=O)c1ccc(-c2ccc3c(c2)COC2(CCN(C4CCC4)CC2)O3)cc1 [Example 284] | 
217 to 219 °C |  |  | < 200 | < 200 | COCc1cc(=O)[nH]cc1-c1ccc2c(c1)COC1(CCN(C3CCC3)CC1)O2 [Example 798] | 
225 to 227 °C | < 200 | < 200 |  |  | COCCN(C)C(=O)c1ccc(-c2ccc3c(c2)CCC2(CCN(C4CCC4)CC2)O3)cc1 [Example 303] | 
180 to 182 °C |  |  | < 200 | < 200 | Cc1cc(C(N)=O)ccc1-c1ccc2c(c1)COC1(CCN(C3CCC3)CC1)O2 [Example 693] | 
143 to 145 °C | 200 to 1000 | < 200 |  |  | CS(=O)(=O)c1ccccc1C(=O)Nc1ccc2c(c1)COC1(CCN(C3CCC3)CC1)O2 [Example 216] | 
127 to 129 °C |  |  | < 200 | < 200 | CNS(=O)(=O)c1ccc(-c2ccc3c(c2)COC2(CCN(C4CCC4)CC2)O3)cc1Cl [Example 620] | 
206 to 207 °C | < 200 | < 200 |  |  | O=C(Nc1ccc2c(c1)COC1(CCN(C3CCC3)CC1)O2)c1ccnnc1 [Example 203] | 
218 to 220 °C |  |  | < 200 | < 200 | CC(C)n1ccc(-c2ccc3c(c2)COC2(CCN(C4CCC4)CC2)O3)cc1=O [Example 758] | 
175 to 176 °C | < 200 | < 200 |  |  | COc1cc(C(=O)Nc2ccc3c(c2)COC2(CCN(C4CCC4)CC2)O3)ccn1 [Example 267] | 
254 to 255 °C |  |  | < 200 | < 200 | O=c1cc(-c2ccc3c(c2)COC2(CCN(C4CCC4)CC2)O3)c(F)c[nH]1 [Example 766] | 
187 to 188 °C |  |  |  |  | O=C1CCCN1c1ccc2c(c1)COC1(CCN(C3CCC3)CC1)O2 [Example 78] | Ki (human H3 receptor; [8]): < 200 nM; Ki [1, 9]: 200 to 1000 nM
